Laboratory results published in patent publication US20260365670A1, “EGFR INHIBITORS AND USES THEREOF” (DIZAL (JIANGSU) PHARMACEUTICAL CO., LTD., priority 2022, published 2026).
Like-named read-outs stand apart in the source and are kept apart here.

Tests used:
[1] = molecular target: T1, EGFR[T790M/C797S/L858R] (Homo sapiens, UniProt P00533, C797S/L858R/T790M); assay: Inhibition of EGFR[T790M/C797S/L858R] biochemical enzymatic activity (HTRF); details: EGFR T790M-C797S-L858R, 1 mM ATP, 1 h, room temperature, read-out: IC50 (nM) @T790M- C797S - L858R
T1 construct: purchased Carna Bio
How it was run: (§1)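 Following 1 h at room temperature with titrated compound, 1 mM ATP and 1 μM biotin-TK peptide (Mg2+/Mn2+, CHAPS, DTT, 0.5% DMSO buffer), EDTA-containing detection reagent terminated each enzyme reaction. Time-resolved fluorescence (ex 320, em 665/615 nm) ratio tracked activity. IC50 values came from four-parameter fits.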

[2] = molecular target: T2, EGFR (d746-750 C797S) (Homo sapiens, UniProt P00533, C797S/DEL746-750); assay: Inhibition of EGFR (d746-750 C797S) biochemical enzymatic activity (HTRF); details: EGFR Del19-C797S, 1 mM ATP, 1 h, room temperature, read-out: IC50 (nM) @Del19-C797S
T2 construct: purchased signalchem
T2 sequence (P00533 with tags, fused parts or gaps DEL746-750/C797S limits assumed): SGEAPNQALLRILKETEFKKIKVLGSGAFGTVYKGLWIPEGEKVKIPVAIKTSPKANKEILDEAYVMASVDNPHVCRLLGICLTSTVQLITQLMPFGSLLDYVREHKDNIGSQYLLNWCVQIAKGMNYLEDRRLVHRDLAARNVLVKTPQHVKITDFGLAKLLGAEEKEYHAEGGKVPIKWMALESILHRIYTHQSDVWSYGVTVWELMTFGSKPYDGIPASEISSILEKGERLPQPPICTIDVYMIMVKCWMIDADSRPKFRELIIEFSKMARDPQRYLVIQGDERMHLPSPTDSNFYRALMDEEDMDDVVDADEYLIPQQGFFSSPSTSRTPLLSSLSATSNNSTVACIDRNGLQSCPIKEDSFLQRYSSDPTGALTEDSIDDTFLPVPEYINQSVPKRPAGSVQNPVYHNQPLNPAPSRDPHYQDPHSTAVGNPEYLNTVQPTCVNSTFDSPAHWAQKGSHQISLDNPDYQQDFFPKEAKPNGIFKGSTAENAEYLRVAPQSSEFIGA
How it was run: as §1

[3] = system: PC-9; assay: Cell proliferation assay, PC-9 cells (CellTiter-Glo, 72 hours); assay type: cell-based; details: PC9 cells, CellTiter-Glo, read-out: PC9 GI50
How it was run: (§2)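 Luminescent viable-cell counts were taken on a day 0 plate at dosing and again at endpoint. Proliferation was calculated as (sample − G0)/(DMSO − G0). Seeding was 5000 Ba/F3 or 500 PC-9 cells per well in RPMI1640, followed by overnight attachment and serial compound dilutions. The GI50 was fitted.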

[4] = molecular target: T3, EGFR[T790M/C797S/d746-750] (Homo sapiens, UniProt P00533, C797S/DEL746-750/T790M); assay: Inhibition of EGFR[T790M/C797S/d746-750] biochemical enzymatic activity (HTRF); details: EGFR T790M-C797S-Del19, 1 mM ATP, 1 h, room temperature, read-out: IC50 (nM) @T790M - C797S - Del19
T3 construct: purchased Carna Bio
How it was run: as §1

[5] = molecular target: T4, EGFR L858R/T790M (Homo sapiens, UniProt P00533, L858R/T790M); assay: Inhibition of EGFR L858R/T790M biochemical enzymatic activity (HTRF); details: EGFR L858R-T790M, 1 mM ATP, 1 h, room temperature, read-out: IC50 (nM) @L858R-T790M
T4 construct: purchased Carna Bio
T4 sequence (P00533 25-1210 T790M/L858R): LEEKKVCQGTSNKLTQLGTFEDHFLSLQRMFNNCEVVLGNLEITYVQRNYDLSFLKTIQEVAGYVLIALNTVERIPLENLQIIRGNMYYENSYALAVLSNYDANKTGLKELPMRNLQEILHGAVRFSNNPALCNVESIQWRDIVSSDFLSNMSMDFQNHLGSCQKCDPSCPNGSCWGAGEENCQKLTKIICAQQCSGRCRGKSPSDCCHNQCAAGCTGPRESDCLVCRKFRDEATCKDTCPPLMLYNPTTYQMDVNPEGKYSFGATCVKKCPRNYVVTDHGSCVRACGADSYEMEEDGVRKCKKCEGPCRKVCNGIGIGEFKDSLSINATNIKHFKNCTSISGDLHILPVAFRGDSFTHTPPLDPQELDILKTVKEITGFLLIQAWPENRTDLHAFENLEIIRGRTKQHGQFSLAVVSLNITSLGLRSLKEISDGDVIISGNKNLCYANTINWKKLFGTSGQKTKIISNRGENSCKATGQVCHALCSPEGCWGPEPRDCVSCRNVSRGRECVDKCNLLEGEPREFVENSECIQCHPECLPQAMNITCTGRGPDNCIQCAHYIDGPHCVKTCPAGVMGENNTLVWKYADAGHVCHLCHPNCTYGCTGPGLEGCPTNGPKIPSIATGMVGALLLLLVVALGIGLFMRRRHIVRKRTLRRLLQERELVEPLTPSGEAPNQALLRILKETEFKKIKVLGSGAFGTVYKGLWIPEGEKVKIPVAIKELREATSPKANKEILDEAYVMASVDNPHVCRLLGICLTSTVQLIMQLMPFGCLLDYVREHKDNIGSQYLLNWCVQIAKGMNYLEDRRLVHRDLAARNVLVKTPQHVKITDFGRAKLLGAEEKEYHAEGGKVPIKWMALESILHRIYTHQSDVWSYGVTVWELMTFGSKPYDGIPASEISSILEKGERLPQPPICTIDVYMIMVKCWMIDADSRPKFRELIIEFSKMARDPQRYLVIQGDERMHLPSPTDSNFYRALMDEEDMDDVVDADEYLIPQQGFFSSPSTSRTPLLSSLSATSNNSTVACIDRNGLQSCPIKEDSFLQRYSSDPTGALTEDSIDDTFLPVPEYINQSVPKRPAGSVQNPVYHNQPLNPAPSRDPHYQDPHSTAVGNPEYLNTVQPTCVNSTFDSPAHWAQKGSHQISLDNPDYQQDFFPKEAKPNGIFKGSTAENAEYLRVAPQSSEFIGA
How it was run: as §1

[6] = system: A-431; assay: Cell proliferation GI50, A-431 cells (Table 6); assay type: cell-based
[7] = molecular target: T5, EGFR wild type (Homo sapiens, UniProt P00533); assay: Inhibition of EGFR wild type biochemical enzymatic activity (HTRF); details: EGFR WT, 1 mM ATP, 1 h, room temperature, read-out: IC50 (nM) @WT
T5 construct: purchased Carna Bio
How it was run: as §1

[8] = system: Ba/F3 cells expressing EGFR mutations; assay: Cell proliferation assay, Ba/F3 cells expressing EGFR mutations (CellTiter-Glo, 72 hours); assay type: cell-based; details: CellTiter-Glo
How it was run: as §2

[9] = molecular target: T6, EGFR Exon19Del/T790M (Homo sapiens, UniProt P00533, DEL746-750/T790M); assay: Inhibition of EGFR Exon19Del/T790M biochemical enzymatic activity (HTRF); details: EGFR Del19-T790M, 1 mM ATP, 1 h, room temperature, read-out: IC50 (nM) @Del19-T790M
T6 construct: purchased Carna Bio
How it was run: as §1

[10] = molecular target: T7, EGFR L858R (Homo sapiens, UniProt P00533, L858R); assay: Inhibition of EGFR L858R biochemical enzymatic activity (HTRF); details: 1 mM ATP, 1 h, room temperature, read-out: IC50 (nM) @L858R
T7 construct: purchased Carna Bio
T7 sequence (P00533 25-1210 L858R): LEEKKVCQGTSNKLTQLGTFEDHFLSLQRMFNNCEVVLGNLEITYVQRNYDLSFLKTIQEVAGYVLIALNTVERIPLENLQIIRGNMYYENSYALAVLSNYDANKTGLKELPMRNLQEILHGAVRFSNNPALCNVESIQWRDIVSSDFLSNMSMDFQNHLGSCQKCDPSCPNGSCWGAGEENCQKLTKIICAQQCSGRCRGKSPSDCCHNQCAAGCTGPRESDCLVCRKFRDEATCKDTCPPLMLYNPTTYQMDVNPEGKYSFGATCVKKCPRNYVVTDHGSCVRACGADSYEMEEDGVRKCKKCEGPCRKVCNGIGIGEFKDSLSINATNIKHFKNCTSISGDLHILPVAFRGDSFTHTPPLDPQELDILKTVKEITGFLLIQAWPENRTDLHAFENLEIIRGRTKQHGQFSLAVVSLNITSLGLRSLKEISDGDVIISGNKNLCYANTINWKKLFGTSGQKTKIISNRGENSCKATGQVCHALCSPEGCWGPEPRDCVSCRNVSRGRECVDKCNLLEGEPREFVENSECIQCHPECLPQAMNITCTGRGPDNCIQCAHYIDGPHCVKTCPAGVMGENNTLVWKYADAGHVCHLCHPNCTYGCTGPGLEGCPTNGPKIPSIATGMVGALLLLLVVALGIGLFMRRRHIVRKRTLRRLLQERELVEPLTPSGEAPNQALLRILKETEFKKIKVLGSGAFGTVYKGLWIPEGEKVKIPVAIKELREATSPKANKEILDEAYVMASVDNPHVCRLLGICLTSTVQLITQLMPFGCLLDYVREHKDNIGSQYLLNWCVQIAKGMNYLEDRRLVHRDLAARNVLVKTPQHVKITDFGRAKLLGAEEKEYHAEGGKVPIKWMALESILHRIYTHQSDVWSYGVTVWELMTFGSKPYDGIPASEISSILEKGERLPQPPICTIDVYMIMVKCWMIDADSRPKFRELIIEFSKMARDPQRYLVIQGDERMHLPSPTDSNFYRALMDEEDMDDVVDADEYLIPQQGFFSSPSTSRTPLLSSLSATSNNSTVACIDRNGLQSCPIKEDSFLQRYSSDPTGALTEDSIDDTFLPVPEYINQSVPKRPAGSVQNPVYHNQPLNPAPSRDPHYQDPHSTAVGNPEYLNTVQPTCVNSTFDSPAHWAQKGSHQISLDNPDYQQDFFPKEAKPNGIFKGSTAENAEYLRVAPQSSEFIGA
How it was run: as §1

[11] = molecular target: T8, EGFR Exon19Del (Homo sapiens, UniProt P00533, DEL746-750); assay: Inhibition of EGFR Exon19Del biochemical enzymatic activity (HTRF); details: EGFR Del19, 1 mM ATP, 1 h, room temperature, read-out: IC50 @Del19
T8 construct: purchased Carna Bio
T8 sequence (P00533 with tags, fused parts or gaps DEL746-750 limits assumed): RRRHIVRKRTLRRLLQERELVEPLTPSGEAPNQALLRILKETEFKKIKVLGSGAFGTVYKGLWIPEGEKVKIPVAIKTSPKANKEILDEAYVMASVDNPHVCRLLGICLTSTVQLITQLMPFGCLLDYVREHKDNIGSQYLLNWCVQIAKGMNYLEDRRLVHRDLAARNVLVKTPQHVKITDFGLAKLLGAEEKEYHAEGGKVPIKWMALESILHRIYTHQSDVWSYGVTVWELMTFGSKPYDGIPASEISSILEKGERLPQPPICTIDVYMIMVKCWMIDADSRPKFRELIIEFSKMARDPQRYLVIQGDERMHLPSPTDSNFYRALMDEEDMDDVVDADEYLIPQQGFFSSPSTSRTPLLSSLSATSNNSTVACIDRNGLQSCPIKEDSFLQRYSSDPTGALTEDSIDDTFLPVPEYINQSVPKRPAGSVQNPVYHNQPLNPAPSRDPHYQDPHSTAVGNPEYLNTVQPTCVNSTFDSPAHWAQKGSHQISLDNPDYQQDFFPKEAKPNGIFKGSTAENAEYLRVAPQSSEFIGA
How it was run: as §1

[12] = molecular target: T9, EGFR (C797S L858R) (Homo sapiens, UniProt P00533, C797S/L858R); assay: Inhibition of EGFR (C797S L858R) biochemical enzymatic activity (HTRF); details: EGFR L858-C797S, 1 mM ATP, 1 h, room temperature, read-out: IC50 (nM) @L858-C797S
T9 construct: purchased signalchem
T9 sequence (P00533 25-1210 C797S/L858R): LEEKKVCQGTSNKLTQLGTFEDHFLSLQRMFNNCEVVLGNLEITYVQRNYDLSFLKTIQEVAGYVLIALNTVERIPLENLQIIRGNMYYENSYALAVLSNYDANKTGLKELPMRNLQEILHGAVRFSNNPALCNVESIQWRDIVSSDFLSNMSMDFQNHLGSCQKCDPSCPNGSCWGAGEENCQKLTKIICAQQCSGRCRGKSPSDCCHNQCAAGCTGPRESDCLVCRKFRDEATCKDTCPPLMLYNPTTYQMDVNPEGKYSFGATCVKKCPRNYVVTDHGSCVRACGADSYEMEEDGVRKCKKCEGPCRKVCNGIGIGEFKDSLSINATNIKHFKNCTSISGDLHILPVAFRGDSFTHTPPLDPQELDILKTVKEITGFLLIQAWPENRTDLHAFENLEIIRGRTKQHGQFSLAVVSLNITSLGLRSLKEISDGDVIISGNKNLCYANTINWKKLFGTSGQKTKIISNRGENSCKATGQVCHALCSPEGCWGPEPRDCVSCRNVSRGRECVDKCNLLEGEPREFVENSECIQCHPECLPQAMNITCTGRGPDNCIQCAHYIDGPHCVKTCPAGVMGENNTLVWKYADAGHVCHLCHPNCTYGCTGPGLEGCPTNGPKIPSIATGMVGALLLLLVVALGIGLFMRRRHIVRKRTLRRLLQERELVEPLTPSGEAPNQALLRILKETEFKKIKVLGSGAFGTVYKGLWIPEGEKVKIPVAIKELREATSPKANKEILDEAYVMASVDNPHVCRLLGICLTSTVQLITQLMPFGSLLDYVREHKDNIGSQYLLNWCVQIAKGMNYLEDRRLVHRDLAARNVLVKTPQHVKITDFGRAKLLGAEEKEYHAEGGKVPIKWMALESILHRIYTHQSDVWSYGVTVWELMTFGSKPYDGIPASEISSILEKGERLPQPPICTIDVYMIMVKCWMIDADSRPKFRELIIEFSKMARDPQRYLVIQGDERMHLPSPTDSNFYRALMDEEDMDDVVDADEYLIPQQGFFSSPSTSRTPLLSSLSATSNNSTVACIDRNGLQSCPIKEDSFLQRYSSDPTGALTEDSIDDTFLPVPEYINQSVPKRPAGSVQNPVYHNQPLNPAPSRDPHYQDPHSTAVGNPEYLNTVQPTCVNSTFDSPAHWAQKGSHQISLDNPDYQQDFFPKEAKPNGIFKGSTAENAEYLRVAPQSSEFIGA
How it was run: as §1

[13] = Homo sapiens, A-431, A-431 cells
[14] = Mus musculus, BaF3, 72 h, BaF3 cells, EGFR DEL19-C797S, read-out: DEL19-C797S/BaF3 GI50
[15] = Mus musculus, BaF3, 72 h, BaF3 cells, EGFR DEL19-T790-C797S, read-out: DEL19-T790-C797S/BaF3 GI50
[16] = Mus musculus, BaF3, 72 h, BaF3 cells, EGFR L858R, read-out: L858R/BaF3 GI50
[17] = Mus musculus, BaF3, 72 h, BaF3 cells, EGFR L858R-C797S, read-out: L858R-C797S/BaF3 GI50
[18] = Mus musculus, BaF3, 72 h, BaF3 cells, EGFR L858R-T790-C797S, read-out: L858R-T790-C797S/BaF3 GI50
[19] = Mus musculus, BaF3, 72 h, BaF3 cells, EGFR L858R-T790M, read-out: L858R-T790M/BaF3 GI50
[20] = Mus musculus, BaF3, 72 h, EGFR DEL19-T790M, read-out: DEL19-T790M GI50

Row | SMILES | IC50 [1] [nM] | IC50 [2] [nM] | IC50 [4] [nM] | IC50 [5] [nM] | IC50 [7] [nM] | IC50 [9] [nM] | IC50 [10] [nM] | IC50 [11] [nM] | IC50 [12] [nM] | GI50 ([3]; Homo sapiens, PC-9, 72 h) [nM] | GI50 [6, 13] [nM] | GI50 [8, 14] [nM] | GI50 [8, 15] [nM] | GI50 [8, 16] [nM] | GI50 [8, 17] [nM] | GI50 [8, 18] [nM] | GI50 [8, 19] [nM] | GI50 [8, 20] [nM] | also measured
1 | C[C@@H]1CCCOc2c(cnn2C)-c2cc(cn(C)c2=O)C(=O)Nc2nc3ccc(N4CCN(C5CC5)CC4)cc3n2C1 [Example A48] | 4.4 | 2.1 | 3.1 | 5 | 2250 | 2.8 | 40 | 3.1 | 28 | 38 | 573 | 9.4 | 48 | 20 | 26 | 21 | 94 | 53 | –
2 | C[C@@H]1CCCOc2c(cnn2C)-c2cc(cn(C)c2=O)C(=O)Nc2nc3ccc(N4CCC(N(C)C)C(F)C4)cc3n2C1 (stereo partly drawn) [Example A38] | 1.7 | 0.81 | 1.7 | 2.7 | 159 | 1.6 | 9.7 | 1.3 | 2.9 | 6.2 | 315 | 1.4 | 4.8 | 4.1 | 4.2 | 3.2 | 13 | 7.3 | –
3 | Cn1ncc2c1OCCN1CCCCC(C)(C1)n1c(nc3ccc(N4CCOCC4)cc31)NC(=O)c1cc-2c(=O)n(C)c1 (stereo not drawn) [Example A13, 1,15,21-Trimethyl-5-(morpholin-4-yl)-23-oxa-2,9,11,15,20,21,26heptaazahexacyclo[24.4.1.1^{13,17}.0^{2,10}.0^{3,8}.0^{18,22}]dotriac onta-3,5,7,9,13,17(32),18(22),19-octaene-12,16-dione] | > 5000 | 780 | 728 | > 5000 | > 5000 | 757 | > 5000 | 932 | > 5000 | 292 | 357 | 148 | 192 | 234 | 232 | 280 | 411 | 192 | –

The next lines start with results.

Row | IC50 [1] [nM] | IC50 [2] [nM] | IC50 [4] [nM] | IC50 [5] [nM] | IC50 [7] [nM] | IC50 [9] [nM] | IC50 [10] [nM] | IC50 [11] [nM] | IC50 [12] [nM] | GI50 ([3]; Homo sapiens, PC-9, 72 h) [nM] | GI50 [6, 13] [nM] | GI50 [8, 14] [nM] | GI50 [8, 15] [nM] | GI50 [8, 16] [nM] | GI50 [8, 17] [nM] | GI50 [8, 18] [nM] | GI50 [8, 19] [nM] | GI50 [8, 20] [nM] | SMILES | also measured
4 | 6.6 | 4.5 | 5.9 | 13 | 937 | 8.5 | 53 | 6.1 | 33 | – | – | – | – | – | – | – | – | – | Cn1ncc2c1OCCN1CC3CCC(C3)(C1)n1c(nc3ccc(N4CCC(N5CCOCC5)C4)cc31)NC(=O)c1cc-2c(=O)n(C)c1 (single isomer, unassigned) [Example A104B] | GI50 [3]: 21 nM; GI50 ([6]; A-431 cells): 1010 nM; GI50 ([8]; BaF3 cells, EGFR DEL19-C797S, read-out: DEL19-C797S/BaF3 GI50): 0.74 nM; GI50 ([8]; BaF3 cells, EGFR DEL19-T790-C797S, read-out: DEL19-T790-C797S/BaF3 GI50): 6.8 nM; GI50 ([8]; BaF3 cells, EGFR L858R, read-out: L858R/BaF3 GI50): 12 nM; GI50 ([8]; BaF3 cells, EGFR L858R-C797S, read-out: L858R-C797S/BaF3 GI50): 8.2 nM; GI50 ([8]; BaF3 cells, EGFR L858R-T790-C797S, read-out: L858R-T790-C797S/BaF3 GI50): 12 nM; GI50 ([8]; BaF3 cells, EGFR L858R-T790M, read-out: L858R-T790M/BaF3 GI50): 19 nM; GI50 ([8]; EGFR DEL19-T790M, read-out: DEL19-T790M GI50): 6.9 nM
5 | 7.2 | 1.8 | 4.4 | 8.4 | 103 | 3.7 | 16 | 3.7 | 8.4 | 51 | 1280 | 4.6 | 25 | 26 | 31 | 29 | 52 | 36 | C[C@@H]1CCCOc2c(cnn2C)-c2cc(cn(C)c2=O)C(=O)Nc2nc3ccc(N4CCNCC4)cc3n2C1 [Example A55] | –
